Results as given in ChEMBL document CHEMBL1201861, “Genomics of Drug Sensitity in Cancer screening data, Wellcome Trust Sanger Institute”.

Key:
Test in all cases: cells
[1] = tested on: D-263MG; format: functional, cell-based, Homo sapiens; conditions: Homo sapiens, D-263MG
Description: SANGER: Inhibition of human D-263MG cell growth in a cell viability assay.

[2] = tested on: DU-4475; format: functional, cell-based, Homo sapiens; conditions: Homo sapiens, DU-4475
Description: SANGER: Inhibition of human DU-4475 cell growth in a cell viability assay.

[3] = tested on: ES5; format: functional, cell-based, Homo sapiens; conditions: Homo sapiens, ES5;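 further: growth inhibition of human ES5 cells, read out by a cell viability assay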
Description: SANGER: Inhibition of human ES5 cell growth in a cell viability assay.

[4] = tested on: ES6; format: functional, cell-based; conditions: Homo sapiens;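 further: growth inhibition of human ES6 cells, read out with a cell viability assay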
Description: SANGER: Inhibition of human ES6 cell growth in a cell viability assay.

[5] = tested on: ES7; format: functional, cell-based, Homo sapiens; conditions: Homo sapiens, ES7;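 further: growth inhibition of cultured human ES7 cells, read out as cell viability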
Description: SANGER: Inhibition of human ES7 cell growth in a cell viability assay.

[6] = tested on: EW-3; format: functional, cell-based, Homo sapiens; conditions: Homo sapiens, EW-3;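 further: cell viability assay read-out, IC50 reflects inhibition of growth of the EW-3 cells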
Description: SANGER: Inhibition of human EW-3 cell growth in a cell viability assay.

[7] = tested on: GOTO; format: functional, cell-based, Homo sapiens; conditions: Homo sapiens, GOTO;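 further: growth inhibition of GOTO cells, read out by a cell viability assay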
Description: SANGER: Inhibition of human GOTO cell growth in a cell viability assay.

[8] = tested on: HCC2218; format: functional, cell-based, Homo sapiens; conditions: Homo sapiens, HCC2218;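 further: cell viability assay read-out, with IC50 given as the concentration that inhibits growth of the cell line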
Description: SANGER: Inhibition of human HCC2218 cell growth in a cell viability assay.

[9] = tested on: HEL; format: functional, cell-based, Homo sapiens; conditions: Homo sapiens, HEL;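 further: growth inhibition of HEL cells, read out with a cell viability assay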
Description: SANGER: Inhibition of human HEL cell growth in a cell viability assay.

[10] = tested on: IST-MES1; format: functional, cell-based, Homo sapiens; conditions: Homo sapiens, IST-MES1;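 further: growth inhibition of IST-MES1 cells, measured with a cell viability assay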
Description: SANGER: Inhibition of human IST-MES1 cell growth in a cell viability assay.

[11] = tested on: K562; format: functional, cell-based, Homo sapiens; conditions: Homo sapiens, K562
Description: SANGER: Inhibition of human K-562 cell growth in a cell viability assay.

[12] = tested on: KS-1; format: functional, cell-based; conditions: Homo sapiens;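 further: growth inhibition of KS-1 cells, read out with a cell viability assay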
Description: SANGER: Inhibition of human KS-1 cell growth in a cell viability assay.

[13] = tested on: L-363; format: functional, cell-based, Homo sapiens; conditions: Homo sapiens, L-363
Description: SANGER: Inhibition of human L-363 cell growth in a cell viability assay.

[14] = tested on: L-428; format: functional, cell-based, Homo sapiens; conditions: Homo sapiens, L-428
Description: SANGER: Inhibition of human L-428 cell growth in a cell viability assay.

[15] = tested on: LS-1034; format: functional, cell-based, Homo sapiens; conditions: Homo sapiens, LS-1034
Description: SANGER: Inhibition of human LS-1034 cell growth in a cell viability assay.

[16] = tested on: LU-139; format: functional, cell-based, Homo sapiens; conditions: Homo sapiens, LU-139
Description: SANGER: Inhibition of human LU-139 cell growth in a cell viability assay.

[17] = tested on: MFM-223; format: functional, cell-based, Homo sapiens; conditions: Homo sapiens, MFM-223
Description: SANGER: Inhibition of human MFM-223 cell growth in a cell viability assay.

[18] = tested on: MOLT-4; format: functional, cell-based, Homo sapiens; conditions: Homo sapiens, MOLT-4;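 further: growth inhibition of MOLT-4 cells, determined with a cell viability readout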
Description: SANGER: Inhibition of human MOLT-4 cell growth in a cell viability assay.

[19] = tested on: MPP-89; format: functional, cell-based, Homo sapiens; conditions: Homo sapiens, MPP-89;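 further: growth inhibition of human MPP-89 cells, read out with a cell viability assay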
Description: SANGER: Inhibition of human MPP-89 cell growth in a cell viability assay.

[20] = tested on: MV4-11; format: functional, cell-based, Homo sapiens, MV-4-11; conditions: Homo sapiens, MV4-11;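 further: cell viability readout measuring growth inhibition of human MV-4-11 cells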
Description: SANGER: Inhibition of human MV-4-11 cell growth in a cell viability assay.

[21] = tested on: Mo; format: functional, cell-based, Homo sapiens; conditions: Homo sapiens, Mo
Description: SANGER: Inhibition of human Mo-T cell growth in a cell viability assay.

[22] = tested on: NB10; format: functional, cell-based, Homo sapiens; conditions: Homo sapiens, NB10;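 further: growth inhibition of NB10 cells, read out by a cell viability assay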
Description: SANGER: Inhibition of human NB10 cell growth in a cell viability assay.

[23] = tested on: NB13; format: functional, cell-based, Homo sapiens; conditions: Homo sapiens, NB13;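 further: cell viability readout measuring growth inhibition of human NB13 cells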
Description: SANGER: Inhibition of human NB13 cell growth in a cell viability assay.

[24] = tested on: NB69; format: functional, cell-based, Homo sapiens; conditions: Homo sapiens, NB69;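 further: growth inhibition of NB69 cells, determined by a cell viability assay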
Description: SANGER: Inhibition of human NB69 cell growth in a cell viability assay.

[25] = tested on: NCI-H1299; format: functional, cell-based; conditions: Homo sapiens;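 further: growth inhibition of human NCI-H1299 cells, read out by a cell viability assay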
Description: SANGER: Inhibition of human NCI-H1299 cell growth in a cell viability assay.

[26] = tested on: NCI-H1304; format: functional, cell-based, Homo sapiens; conditions: Homo sapiens, NCI-H1304;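 further: growth inhibition of the cancer cell line, measured in a cell viability assay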
Description: SANGER: Inhibition of human NCI-H1304 cell growth in a cell viability assay.

[27] = tested on: NCI-H1770; format: functional, cell-based, Homo sapiens; conditions: Homo sapiens, NCI-H1770;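 further: growth inhibition of NCI-H1770 cells determined with a viability readout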
Description: SANGER: Inhibition of human NCI-H1770 cell growth in a cell viability assay.

[28] = tested on: NCI-H720; format: functional, cell-based, Homo sapiens; conditions: Homo sapiens, NCI-H720;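 further: growth inhibition of human NCI-H720 cells determined by a cell viability assay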
Description: SANGER: Inhibition of human NCI-H720 cell growth in a cell viability assay.

[29] = tested on: NH-12; format: functional, cell-based, Homo sapiens; conditions: Homo sapiens, NH-12;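 further: growth inhibition of NH-12 cells, read out with a cell viability assay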
Description: SANGER: Inhibition of human NH-12 cell growth in a cell viability assay.

[30] = tested on: NOS-1; format: functional, cell-based, Homo sapiens; conditions: Homo sapiens, NOS-1;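 further: growth inhibition of the human NOS-1 cell line, read out with a cell viability assay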
Description: SANGER: Inhibition of human NOS-1 cell growth in a cell viability assay.

[31] = tested on: OS-RC-2; format: functional, cell-based, Homo sapiens; conditions: Homo sapiens, OS-RC-2;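 further: growth inhibition of human OS-RC-2 cells, measured by a cell viability assay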
Description: SANGER: Inhibition of human OS-RC-2 cell growth in a cell viability assay.

[32] = tested on: SF-126; format: functional, cell-based, Homo sapiens; conditions: Homo sapiens, SF-126;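 further: growth inhibition of human SF126 cells, read out with a cell viability assay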
Description: SANGER: Inhibition of human SF126 cell growth in a cell viability assay.

[33] = tested on: SF-539; format: functional, cell-based, Homo sapiens; conditions: Homo sapiens, SF-539;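 further: Read-out is a cell viability assay, with IC50 reflecting inhibition of cell growth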
Description: SANGER: Inhibition of human SF539 cell growth in a cell viability assay.

[34] = tested on: SK-MEL-2; format: functional, cell-based, Homo sapiens; conditions: Homo sapiens, SK-MEL-2;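 further: growth inhibition of human SK-MEL-2 cells measured with a cell viability assay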
Description: SANGER: Inhibition of human SK-MEL-2 cell growth in a cell viability assay.

[35] = tested on: SK-NEP-1; format: functional, cell-based, Homo sapiens; conditions: Homo sapiens, SK-NEP-1;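 further: growth inhibition of human SK-NEP-1 cells, read out by a cell viability assay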
Description: SANGER: Inhibition of human SK-NEP-1 cell growth in a cell viability assay.

[36] = tested on: SK-PN-DW; format: functional, cell-based, Homo sapiens; conditions: Homo sapiens, SK-PN-DW;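 further: growth inhibition measured with a viability assay on these cells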
Description: SANGER: Inhibition of human SK-PN-DW cell growth in a cell viability assay.

[37] = tested on: SW684; format: functional, cell-based, Homo sapiens; conditions: Homo sapiens, SW684; read-out: IC50;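 further: growth inhibition of human SW684 cells, measured by a cell viability assay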
Description: SANGER: Inhibition of human SW684 cell growth in a cell viability assay.

[38] = tested on: TE-1; format: functional, cell-based, Homo sapiens; conditions: Homo sapiens, TE-1;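 further: growth inhibition of the human TE-1 cell line, read out with a cell viability assay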
Description: SANGER: Inhibition of human TE-1 cell growth in a cell viability assay.

[39] = tested on: 697; format: functional, cell-based, Homo sapiens; conditions: Homo sapiens
Description: SANGER: Inhibition of human 697 cell growth in a cell viability assay.

[40] = tested on: A704; format: functional, cell-based; conditions: Homo sapiens;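 further: growth inhibition of human A704 cells, read out with a cell viability assay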
Description: SANGER: Inhibition of human A704 cell growth in a cell viability assay.

[41] = tested on: ATN-1; format: functional, cell-based, Homo sapiens; conditions: Homo sapiens, ATN-1;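 further: growth inhibition of human ATN-1 cells, read out with a cell viability assay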
Description: SANGER: Inhibition of human ATN-1 cell growth in a cell viability assay.

[42] = tested on: BB49-HNC; format: functional, cell-based, Homo sapiens; conditions: Homo sapiens, BB49-HNC;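 further: cell viability assay read-out, reported as inhibition of BB49-HNC cell growth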
Description: SANGER: Inhibition of human BB49-HNC cell growth in a cell viability assay.

[43] = tested on: TE-12; format: functional, cell-based, Homo sapiens; conditions: Homo sapiens, TE-12;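 further: growth inhibition of TE-12 cells, read out by a cell viability assay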
Description: SANGER: Inhibition of human TE-12 cell growth in a cell viability assay.

[44] = tested on: TE-6; format: functional, cell-based, Homo sapiens; conditions: Homo sapiens, TE-6;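 further: growth inhibition of TE-6 cells, read out with a cell viability assay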
Description: SANGER: Inhibition of human TE-6 cell growth in a cell viability assay.

[45] = tested on: TK-10; format: functional, cell-based, Homo sapiens; conditions: Homo sapiens, TK-10;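 further: growth inhibition of TK-10 cells, read out in a cell viability assay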
Description: SANGER: Inhibition of human TK10 cell growth in a cell viability assay.

[46] = tested on: CGTH-W-1; format: functional, cell-based, Homo sapiens; conditions: Homo sapiens, CGTH-W-1;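 further: growth inhibition of human CGTH-W-1 cells measured by cell viability assay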
Description: SANGER: Inhibition of human CGTH-W-1 cell growth in a cell viability assay.

[47] = tested on: COLO-829; format: functional, cell-based, Homo sapiens; conditions: Homo sapiens, COLO-829
Description: SANGER: Inhibition of human COLO-829 cell growth in a cell viability assay.

[48] = tested on: NCI-H1648; format: functional, cell-based, Homo sapiens; conditions: Homo sapiens, NCI-H1648;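 further: cell viability assay measuring inhibition of NCI-H1648 cell growth, from the Sanger screening data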
Description: SANGER: Inhibition of human NCI-H1648 cell growth in a cell viability assay.

[49] = tested on: NCI-H1838; format: functional, cell-based, Homo sapiens; conditions: Homo sapiens, NCI-H1838;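 further: growth inhibition of NCI-H1838 cells, determined with a cell viability readout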
Description: SANGER: Inhibition of human NCI-H1838 cell growth in a cell viability assay.

SMILES: NC1(c2ccc(-c3nc4ccn5c(=O)[nH]nc5c4cc3-c3ccccc3)cc2)CCC1 [MK-2206]
- IC50 [1]: > 4 µM
- IC50 [2]: > 4 µM
- IC50 [3]: 0.345 µM
- IC50 [4]: > 4 µM
- IC50 [5]: > 4 µM
- IC50 [6]: 3.2 µM
- IC50 [7]: > 4 µM
- IC50 [8]: 1.68 µM
- IC50 [9]: > 4 µM
- IC50 [10]: > 4 µM
- IC50 [11]: > 4 µM
- IC50 [12]: 2.38 µM
- IC50 [13]: 0.834 µM
- IC50 [14]: > 4 µM
- IC50 [15]: > 4 µM
- IC50 [16]: > 4 µM
- IC50 [17]: 1.34 µM
- IC50 [18]: 0.806 µM
- IC50 [19]: > 4 µM
- IC50 [20]: 2.75 µM
- IC50 [21]: > 4 µM
- IC50 [22]: > 4 µM
- IC50 [23]: > 4 µM
- IC50 [24]: 2.39 µM
- IC50 [25]: > 4 µM
- IC50 [26]: > 4 µM
- IC50 [27]: > 4 µM
- IC50 [28]: 0.377 µM
- IC50 [29]: > 4 µM
- IC50 [30]: 0.637 µM
- IC50 [31]: 3.11 µM
- IC50 [32]: > 4 µM
- IC50 [33]: > 4 µM
- IC50 [34]: > 4 µM
- IC50 [35]: 1.14 µM
- IC50 [36]: > 4 µM
- IC50 [37]: > 4 µM
- IC50 [38]: > 4 µM
- IC50 [39]: 1.38 µM
- IC50 [40]: > 4 µM
- IC50 [41]: > 4 µM
- IC50 [42]: > 4 µM
- IC50 [43]: > 4 µM
- IC50 [44]: > 4 µM
- IC50 [45]: > 4 µM
- IC50 [46]: > 4 µM

SMILES: CS(=O)(=O)N1CCN(Cc2cc3nc(-c4cccc5[nH]ncc45)nc(N4CCOCC4)c3s2)CC1 [PICTILISIB]
- IC50 [47]: > 4 µM
- IC50 [1]: 0.718 µM
- IC50 [2]: > 4 µM
- IC50 [3]: 0.0502 µM
- IC50 [4]: > 4 µM
- IC50 [5]: 0.342 µM
- IC50 [7]: > 4 µM
- IC50 [9]: > 4 µM
- IC50 [10]: > 4 µM
- IC50 [11]: > 4 µM
- IC50 [12]: 2.11 µM
- IC50 [13]: 0.798 µM
- IC50 [14]: > 4 µM
- IC50 [15]: > 4 µM
- IC50 [17]: > 4 µM
- IC50 [18]: 0.624 µM
- IC50 [19]: > 4 µM
- IC50 [20]: 0.724 µM
- IC50 [21]: > 4 µM
- IC50 [22]: > 4 µM
- IC50 [23]: > 4 µM
- IC50 [24]: 0.245 µM
- IC50 [25]: > 4 µM
- IC50 [26]: > 4 µM
- IC50 [48]: 0.999 µM
- IC50 [27]: 0.124 µM
- IC50 [49]: > 4 µM
- IC50 [29]: 2.05 µM
- IC50 [30]: 0.212 µM
- IC50 [31]: > 4 µM
- IC50 [32]: 2.31 µM
- IC50 [33]: > 4 µM
- IC50 [34]: > 4 µM
- IC50 [35]: 0.726 µM
- IC50 [36]: > 4 µM
- IC50 [37]: > 4 µM
- IC50 [38]: > 4 µM
- IC50 [39]: 0.832 µM
- IC50 [40]: 1.51 µM
- IC50 [41]: > 4 µM
- IC50 [42]: 1.89 µM
- IC50 [43]: > 4 µM
- IC50 [44]: > 4 µM
- IC50 [45]: 1.67 µM
- IC50 [46]: > 4 µM

SMILES: CN(C)CCOc1ccc(-c2nc(-c3ccncc3)c(-c3ccc4c(c3)CC/C4=N\O)[nH]2)cc1 [SB590885]
- IC50 [47]: 0.967 µM
- IC50 [1]: > 5 µM
- IC50 [2]: 0.0235 µM
- IC50 [3]: > 5 µM
- IC50 [4]: > 5 µM
- IC50 [5]: > 5 µM
- IC50 [6]: 3.56 µM
- IC50 [7]: > 5 µM
- IC50 [8]: 1.06 µM
- IC50 [9]: > 5 µM
- IC50 [10]: > 5 µM
- IC50 [11]: > 5 µM
- IC50 [12]: > 5 µM
- IC50 [13]: 4.69 µM
- IC50 [14]: > 5 µM
- IC50 [15]: > 5 µM
- IC50 [16]: > 5 µM
- IC50 [17]: > 5 µM
- IC50 [18]: > 5 µM
- IC50 [19]: > 5 µM
- IC50 [20]: > 5 µM
- IC50 [21]: > 5 µM
- IC50 [22]: > 5 µM
- IC50 [23]: > 5 µM
- IC50 [24]: > 5 µM
- IC50 [25]: > 5 µM
- IC50 [26]: > 5 µM
- IC50 [27]: > 5 µM
- IC50 [49]: > 5 µM
- IC50 [28]: > 5 µM
- IC50 [29]: > 5 µM
- IC50 [30]: > 5 µM
- IC50 [31]: > 5 µM
- IC50 [32]: > 5 µM
- IC50 [33]: > 5 µM
- IC50 [34]: 0.738 µM
- IC50 [35]: > 5 µM
- IC50 [36]: > 5 µM
- IC50 [37]: > 5 µM
- IC50 [38]: > 5 µM
- IC50 [39]: > 5 µM
- IC50 [40]: > 5 µM
- IC50 [41]: > 5 µM
- IC50 [42]: > 5 µM
- IC50 [43]: > 5 µM
- IC50 [44]: > 5 µM
- IC50 [45]: > 5 µM
- IC50 [46]: > 5 µM
